Patent US11299715B2, “Use of iNOS inhibitors to increase viral yield in culture” (priority 2013, dated 2022)

How the values were obtained:
[1] = system: rHSV-1 d27-1 (d27-1) vector; test: ATA-HSV protocol: rHSV-1 d27-1 vector yield in V27 cell supernatants; type: cell-based, HSV-1
Text: The wtHSV-1 KOS strain and the ICP27-deficient derivatives of the wtHSV-1 KOS strain: vectors d27-1 (Rice and Knipe, J. Virol. (1990) 64:1704-1715), rHSV-rep2/cap2 and rHSV-EGFP (Kang et al., Gene Ther. (2009) 16:229-239) and their producer ICP27-complementing V27 cell line were obtained from AGTC (Alachua, Fla.). The wtHSV-1 MacIntyre strain, purchased from Advanced Biotechnologies Inc. (ABI, Columbia Md.) and wtHSV-1 KOS strain were propagated in Vero, 293 or HeLa cell lines. Infectious vector particles were harvested 72 hr postinfection by recovering culture supernatant. The titers of HSV-1 stocks in DNase resistant particles/ml (DRP/ml) were determined by Taqman assay. Viral genomes within crude culture medium were quantified via treatment in the presence of DNase I (50 U/ml final; Promega) at 37° C. for 60 min, followed by proteinase K (Invitrogen) digestion (1 U/ml) at 50° C. for 60 min, and then denatured at 95° C. for 30 min. Linearized plasmid pZero 195 UL36 (obtained from AGTC, Inc., Alachua, Fla.) was used to generate standard curves.
ATA (Sigma-A1895 Aurintricarboxylic acid practical grade, ≥85% (titration), powder) stock solution was generated as 500 μM concentration in 100 mM sodium bicarbonate water solution. ATA stock solution was further diluted in DMEM+/−10% fetal bovine serum (FBS, Hyclone, Waltham, Mass.) into concentration ranges of […] ATA (8.5-21 μgATA/ml). The HSV-1 infection at multiplicity of infection of 0.15 (MOI=0.15) (typically 6×10^5 cells in a 6-well plate) was performed in 40% (⅖ vol) of the total final media volume for 1-2 hrs and the remaining media (60% or ⅗ of the total final volume) was added during the dilution step. The cells were then incubated 72 hours and supernatant harvested to perform forming units per milliliter (PFU/ml) and DRP/ml titer assays.
In order to test whether ATA could increase the rHSV-1 d27-1 (d27-1) vector yield in V27 cells, ATA was applied to the media during the infection (Step 1) or dilution steps (Step 2) (FIG. 2A). The d27-1 infection at MOI=0.15 was performed in ⅖ of the final media volume and the remaining ⅗ of the media was added during dilution step.
In order to determine which concentrations and conditions for ATA addition have impact on HSV yields, the following experiments were conducted. ATA at varying concentrations was added to V27 cultures infected with the HSV-1 d27-1 vectors in either six-well plates (FIG. 2B) or T150 flasks (FIG. 2C) in two steps as follows. In Step 1 of the protocol, V27 cells were infected with 0.15 MOI of the rHSV vector in ⅖ of the final volume of DMEM with 10% FBS and 0-60 μM ATA concentrations. Cells were cultured for 1-2 hours at 37° C. to complete Step 1. In Step 2, the concentration of ATA was reduced to a range between 12-24 μM by the addition of ⅗ of final media volume. Cells were cultured for 70-74 hours at 37° C. and the supernatant harvested. Viral titers were expressed as Dnase Resistant Particles (DRP/ml) or Plaque Forming Units (pfu/ml) per ml and were determined as described above.
In this experiment, V27 cells were seeded into six well plates the day prior to infection at 6×10^5 cells/well. HSV 2× infection solution was prepared as follows: HSV-1 d27.1 stock was added to DMEM (no FBS) at 2× titer that the cells would be infected at final MOI 0.15. Several 2×ATA solution combinations were prepared containing either 100 μM or 40 μM ATA in DMEM and without FBS or with 20% FBS.
HSV 2× infection solution was mixed equal volumes of either DMEM−/+20% FBS or desired 2×ATA solution−/+20% FBS, vortexed, and 1 ml of infectious inoculum per well was added in Step 1. If wells contained ATA in Step 1, the concentration was 50 μM and all wells were incubated for 1-2 hrs. In Step 2, additional 1.5 ml of DMEM combinations−/+40 μM ATA and −/+20% FBS were added. If wells contained ATA whether in Step 1 or Step 2, the final ATA concentration was 20 μM. […]

[2] = system: rHSV-1 d27-1 (d27-1) vector; test: as above; type: cell-based, HSV-1; conditions: V27 cells, n=10, ATA 50 μM at Step 1, final 20 μM
[3] = serum-free media, ATA at Step 2, 20 μM final
[4] = serum-free media, ATA starting at 3 μM at Step 1

Structure (SMILES): O=C(O)C1=CC(=C(c2ccc(O)c(C(=O)O)c2)c2ccc(O)c(C(=O)O)c2)C=CC1=O [ATA, 5-((3-carboxy-4-hydroxyphenyl)(3-carboxy-4-oxo-2,5-cyclohexadien-1-ylidene)methyl)-2-hydroxybenzoic acid]
- d27-1 titer in supernatant (PFU/ml) ([1]; 50 μM ATA at infection step, 20 μM f.c., 72 h.p.i., control 1.4±0.2×10^7): 1.2±0.3×10^8 PFU/ml
- d27-1 titer in supernatant (DRP/ml) ([1]; 50 μM ATA at infection step, 20 μM f.c., 72 h.p.i., control 4.0±0.3×10^7): 3.7±0.2×10^8 DRP/ml
- increase of d27-1 titers in supernatant ([1]; 50 μM ATA at infection step, 20 μM f.c., harvest 72 h.p.i.): about 10 times
- Cytopathic effect (CPE) at the time of harvest ([1]; 72 hpi, V27 monolayers, 100% CPE in the absence of ATA): 20-60%
- HSV titers versus cultures without ATA ([1]; ATA added in Step 1 or Step 2, six-well plates and T150 flasks, 10% FBS): significantly higher
- HSV-1 plaque formation or cell lysis in V27 cell monolayers ([1]; ATA treatment): delayed
- DRP titer, ATA in serum-free media at dilution step (Step 2) [1, 3]: reduced below control level
- PFU/ml titer, ATA in serum-free media at dilution step (Step 2) [1, 3]: below detection
- DRP/ml titer, ATA in serum-free media at infection Step 1 [1, 4]: below the detection limit
- PFU/ml titer, ATA in serum-free media at infection Step 1 [1, 4]: below the detection limit
- d27-1 titers with ATA (DRP/ml) ([1]; summary statement): ≥ 4×10^8 DRP/ml
- d27-1 titers with ATA (PFU/ml) ([1]; summary statement): at least 1×10^8 PFU/ml
- increase of d27-1 yields in V27 cells supernatants ([1]; summary statement): 3-5 times
- increase of d27-1 titer after ATA addition ([2]; 6-well plates, MOI 0.15): 6.1 times
- d27-1 titer after ATA addition ([2]; without ATA 5.4×10^7): 1.1×10^8 DRP/ml
